What was measured:
mast cells = conditions: low concentrations, opposite effect to inhibition; cited from earlier work
[1] = pKa and base-form fraction of local anesthetics in aqueous solution; assay type: physicochemical
Text: The pKa is the pH at which 50% of the drug in an aqueous solution will be in the base form and 50% in the ion or charged form. As the pH of the solution falls, more of the drug converts into the ion form. Since the pH scale is a logarithmic scale, these changes are quite marked over a small pH range.
The pKa is the pH at which 50% of the drug in solution will be in the base form and 50% in the salt form. As the pH rises above the pKa, more of the drug will dissociate and convert into the free base non-ionic form. […] Local anesthetics and their pharmacology are discussed in detail in Remington's Pharmaceutical Sciences, A. Osol, ed., Mack Pub. Co., Easton, Pa. (16th ed. 1980) and the Merck Index (11th ed., 1989).

[2] = not given; remark: listed apart in the source

## CCN(CC)CC(=O)Nc1c(C)cccc1C [lidocaine]
Mast cells
  concentration at which lidocaine causes mast cells to release their histamine content: < 1 mmol
[1]; pH 5.8
  fraction of drug in the base form: 0.5%
[1]; pH 6.8
  fraction of drug in the base form: 5%
Alkalinized intravesical lidocaine, serum
  lidocaine levels compared with previously reported levels: ten times higher
Human volunteers, 4, 5 or 6 mg/kg 5% lidocaine intravesical with 8.4% sodium bicarbonate, pH 8.0, all subjects, within the first hour
  peak blood (serum) levels of lidocaine: 0.5-2 ug/cc
Human volunteers, at 30 minutes
  mean peak concentration of lidocaine in blood: 1.06 µg/mL
[2]; anesthetized rabbits, intra-vesical, pH 8.1
  peak blood levels of radiolabeled lidocaine: 800 CPM/0.1 ml of blood
[2]; live rabbit bladder, 45 minutes in situ, pH 8.45
  tissue levels of radioactive labeled lidocaine in bladder mucosa: declined rapidly to almost the same as at the pH levels below 8.0
[2]; live rabbit bladder, 45 minutes in situ, pH between 8.1 and 8.25
  peak tissue levels of radioactive labeled lidocaine in bladder mucosa: around 3,500,000 CPM/g of tissue

— US20050238733A1, “Topical anesthesia of the urinary bladder” (priority 2000, published 2005)
